According to PMC10906223 (JCI Insight, 2024):
Values joined by “and” are separate entries in the source; they are usually repeats but may differ in a detail not shown here. Identical values can stand only once. “Also recorded” adds a separate entry of the source.

Assays:
[1] = test system: isolated islets of donors with T1D; assay: Glucagon secretion from isolated islets of donors with T1D; format: cell-based, human; settings: for Secretion of glucagon: isolated islets, T1D donors, one value per donor, Figure 2G
Method: The Integrated Islet Distribution Program provided us human donor islets with their characteristics (Supplemental Table 6). Islets were centrifuged at 500g for 3 minutes, resuspended in CMRL 1066 medium (Gibco, catalog 1150-037) containing 11 mM glucose, and rested in an incubator overnight.
For the hormone secretion assay, islets or dispersed islet cells were adapted in KRBH buffer containing 11 mM glucose for 1 hour. Then, after 2 washes in HBSS containing 11 mM glucose, islets or cells were treated in the following sequential order in the presence or absence of WCDD301: incubation in KRBH (1 mM glucose, 30 minutes) followed by medium collection, incubation in KRBH (11 mM glucose, 30 minutes) followed by medium collection.

[2] = test system: diabetic NOD mice; assay: Blood glucose in diabetic NOD mice, once-daily oral WCDD301 in SAIB-Agar; format: in vivo, mouse; parameters: Blood glucose: unit: mg/dL; settings: for Blood glucose: oral 7.5 mg/kg once daily, per mouse, Figure 6A, 7.5 mg/kg
Method: For the polygenic model for T1D (the Jackson Laboratory), 10 cohorts of independent NOD/shiLTJ mice (each 10, equal numbers of females and males) were purchased at 7–9 weeks old. Blood glucose levels were monitored twice a week using a glucometer (Glucocard Vital) to find those mice at risk of diabetes. Diabetes was confirmed when the blood glucose levels remained at 200–250 mg/dL for 3 consecutive days. This profile of the blood glucose level is referred to as moderate hyperglycemia.
We prepared sustained time-release pearls for oral administration in the mouse models. To this end, we combined FDA-approved excipients of Eastman BioSustane SAIB NF (product code: 41271-00, sample distribution from Eastman Company, Kingsport, Tennessee, USA; provided by Phillip Cook) and Agar (Lamda Biotech, catalog C110) at the ratio of 1:1.45 (w/w). We also prepared another type of sustained time-release pearl by mixing SAIB, Agar, and L (-) malic acid (MilliporeSigma, catalog 202-601-5) at the ratio of 1:1.4:0.2 (w/w/w). A homogenous paste mixture was prepared, and pearls were formed with 50–60 mg weight and approximately 2 mm diameter by pinching off the mixture and manually rolling.
We preweighed WCDD301 into microfuge tubes and reconstituted it using deionized water. Using a 10 μL pipette tip, we placed the calculated dose of WCDD301 (at the volume range of 1–1.5 μL) within the center of pearls. WCDD301 was placed into pearls 30–45 minutes before administration. For oral administration of pearls, we designed an applicator using a disposable plastic transfer pipette and syringe plunger lubricated with olive oil. Food intake and body weight in each experimental group (diabetic WCDD301-treated, diabetic placebo-treated, and nondiabetic placebo-treated NOD mice) were monitored daily for 4 weeks. Urine glucose was measured from individually caged NOD mice (nondiabetic placebo treated n = 2, diabetic placebo treated n = 2, and diabetic WCDD301 treated n = 4, 21–23 weeks old) with metabolic cages. Urine glucose was monitored every 24 hours for 10 days by semiquantitative measurements (P-STICKS, Millpledge Veterinary).
We applied the following therapeutic regimens in the fed state for oral dosing of pearls containing WCDD301. The therapeutic regimen for diabetic NOD mice with moderate hyperglycemia (n = 6–9; 6 females/3 males) or nondiabetic ones with blood glucose levels of < 140 mg/dL (females, n = 5) was dose 7.5 mg/kg, dosage once a day, and excipient SAIB-Agar, 50–60 mg. The therapeutic regimen for STZ-induced diabetic mice with early severe hyperglycemia (n = 3, placebo group; n = 4 treatment group, females) was dose 10 mg/kg, dosage once a day, and excipient SAIB-Agar-malic acid, 50–60 mg.

[3] = test system: α cells of NOD mice islets; assay: α cell numbers and sizes in islets of NOD mice; format: in vivo, mouse; settings: 11-week administration; Supplemental Figure 7
Method: Pancreata of NOD mice (females, n = 3 per group) from nondiabetic, diabetic placebo-treated, and diabetic WCDD301-treated cohorts were excised; fixed in 10% buffered formalin for 5 days; and treated with ethanol 70% for 2 days before paraffin embedding. The paraffin-embedded tissue blocks were longitudinally sectioned in 5 μm slices and fixed on microscope slides. Following deparaffinization (through incubation in graded xylene, graded ethanol, and PBS), permeabilization (using 0.1% Triton X-100 in PBS), and background blocking (using 5% BSA solution containing 0.1% Tween 20), samples were incubated with primary antibodies (mouse anti-glucagon, Abcam, catalog ab10988; above-mentioned rabbit anti-EphA4), secondary antibodies (goat anti-mouse IgG Alexa Fluor 488; Invitrogen, catalog A-11001; goat anti-rabbit IgG Alexa Fluor 633, Invitrogen, catalog A-21070), SPY555-Actin (Cytoskeleton, catalog SC202), and DAPI. Image acquisition and analysis were performed as for dispersed islet cells. […] ROIs were manually drawn around each islet, background signal was removed by thresholding, and intensity of glucagon signal was determined and normalized by the islet surface area. To determine sizes of α cells per islet, ROIs were manually drawn around α cells in each islet. […]

[4] = test system: NOD mice; assay: Blood chemistry parameters in WCDD301-treated NOD mice; format: in vivo, mouse
Method: Terminal blood was collected into microfuge tubes containing K2-EDTA (supplemented by 45 mM phenylmethylsulphonyl fluoride and 0.77 μM aprotinin) through cardiac puncture. Plasma was separated by centrifugation (2,000g for 10 minutes at 4°C) and kept at –80°C until analysis. Plasma samples with hemolysis were excluded from the study. […] Values of BUN, creatinine, ALB, ALT, and AST were determined by a Roche Cobas C501 Autoanalyzer as performed by the Washington University Diabetes Research Center Translational Diagnostics Core. Reference intervals of blood chemistry parameters for inbred NOD mice were extracted from the Mouse Phenome Database (https://phenome.jax.org/).

CC(=O)OCC(N)(COC(C)=O)COC(C)=O [WCDD301, 2-(acetoxymethyl)-2-aminopropane-1,3-diyl diacetate]
Effect on glucagon secretion ([1]; islets from donors with long-standing T1D): reduced glucagon secretion
Secretion of glucagon ([1]; 1 mM glucose): 39.575 and 41.23
Secretion of glucagon ([1]; 11 mM glucose): 36.8 and 30.22
Blood glucose (Supplemental Figure 6A) ([2]; 48h later (after stopping dosing)): 350 mg/dL and 370 mg/dL and 330 mg/dL
Blood glucose (Supplemental Figure 6A) ([2]; A week after resuming dosing): 119 mg/dL and 124 mg/dL and 131 mg/dL
Blood glucose (Supplemental Figure 6A) ([2]; Stoping dosing): 119 mg/dL and 109 mg/dL and 124 mg/dL
Blood glucose (Supplemental Figure 6A) ([2]; Week 1): 184 mg/dL and 200 mg/dL and 210 mg/dL
Blood glucose (Supplemental Figure 6A) ([2]; Week 2): 122 mg/dL and 116 mg/dL and 109 mg/dL
Blood glucose (Supplemental Figure 6A) ([2]; Week 3): 132 mg/dL and 147 mg/dL and 115 mg/dL
Effect on blood glucose ([2]; diabetic NOD mice, moderate hyperglycemia (200–250 mg/dL), once-daily oral, SAIB-Agar): significantly reduced blood glucose levels within a week of administration; also recorded: normalized blood glucose level during an 11-week follow-up
Time to normalized blood glucose ([2]; diabetic NOD mice, SAIB-Agar formulation): ≤ 2 weeks
Blood glucose ([2]; diabetic NOD mice, Week 1, before treatment 230-251, mg/dL): 165 and 170 and 163 and 184 and 200 and 210 and 198 and 180 and 175
Blood glucose ([2]; diabetic NOD mice, Week 2): 114 and 125 and 128 and 122 and 116 and 109 and 115
Blood glucose ([2]; diabetic NOD mice, Week 3): 120 and 115 and 116 and 132 and 147 and 109 and 110
Blood glucose ([2]; diabetic NOD mice, Week 4): 119 and 124 and 108 and 112 and 115 and 110
Blood glucose ([2]; diabetic NOD mice, Week 5): 109 and 105 and 115 and 118 and 117
Blood glucose ([2]; diabetic NOD mice, Week 6): 105 and 107 and 104 and 120 and 112 and 118
Blood glucose ([2]; diabetic NOD mice, Week 7): 109 and 105 and 106 and 110 and 118 and 116
Blood glucose ([2]; diabetic NOD mice, Week 8): 109 and 107 and 110 and 118 and 116
Blood glucose ([2]; diabetic NOD mice, Week 9): 114 and 109 and 120 and 105 and 118 and 98
Blood glucose ([2]; diabetic NOD mice, Week 10): 119 and 114 and 117 and 102 and 105 and 108
Blood glucose ([2]; diabetic NOD mice, Week 11): 109 and 112 and 116 and 114 and 108 and 110
Blood glucose after discontinuing for 48 hours and resuming dosing ([2]; treated diabetic NOD mice, Supplemental Figure 6A): resulted in hyperglycemia; also recorded: Euglycemia returned after resuming the WCDD301 dosing
Numbers or sizes of α cells (histology) [3]: did not indicate any alterations in numbers or sizes of α cells
Blood chemistry markers (BUN, creatinine, ALB, ALT, AST) ([4]; WCDD301-treated animals): remained in the normal range
Creatinine (CREAT) ([4]; non-diabetic NOD mice, 19-week-old, treated with WCDD301, mean ± SEM, n=5, reference interval 0.2-0.5): 0.2 ± 0.1 mg/dL
Albumin (ALB) ([4]; non-diabetic NOD mice, 19-week-old, treated with WCDD301, mean ± SEM, n=5, reference interval 1.72-3.54): 3 ± 0.1 g/dL
Alanine aminotransferase (ALT) ([4]; non-diabetic NOD mice, 19-week-old, treated with WCDD301, mean ± SEM, n=5, reference interval 5-394): 20.5±9.5 IU/L
Blood urea nitrogen (BUN) ([4]; non-diabetic NOD mice, 19-week-old, treated with WCDD301, mean ± SEM, n=5, reference interval 10-79): 21 ± 2.3 mg/dL
Aspartate aminotransferase (AST) ([4]; non-diabetic NOD mice, 19-week-old, treated with WCDD301, mean ± SEM, n=5, reference interval 18-586): 99.5±57.5 IU/L
